We go through 2 compounds from patent publication US20040204457A1, “Use of (+)-alpha-(2,3-dimethoxyphenyl)-1-[2-(4-fluorophenyl)ethyl]-4- piperidinemethanol or its prodrug in the treatment of symptoms of dementia and dopamine induced psychosis” (Aventis Pharmaceuticals Inc., priority 2000, published 2004).

For one assay, the system named is social memory. Kind of assay: social memory test in mice (duration of social interaction, baseline vs retest). Format: in vivo. The settings on record: 0.1 and 1 mg/kg.
In assay [1] the test system is scopolamine-stimulated locomotion. Kind of assay: scopolamine-stimulated locomotion in rats (60 min activity counts). Format: in vivo, rat. The settings on record: for antagonism of scopolamine-stimulated locomotion: 0.03-1 mg/kg. How it is done: Cholinergic deficiency states include various neurodegenerative diseases such as Alzheimer's disease, Dementia with Lewy Bodies, Charles Bonnet Syndrome, delirium and Parkinson's disease. Experimental Procedure. All procedures were conducted in normal white light conditions. Rats (1 per box) were first acclimated to test boxes (45×22×20 cm; clear polycarbonate with a plastic top) for 90 minutes. […] Testing commenced immediately. […] Each interruption of a photoelectric light beam was recorded as a single activity count by a microprocessor-based control system. Testing took place between 10:00 a.m. and 5:00 p.m., with all groups counterbalanced for time of testing. The experimenter was blind to treatment group during the experiment.

Molecules are shown by their SMILES.

Description for social memory: Male CD-1 mice (30-35 grams) were first acclimated to the test room for approximately 1 hour. […] For the baseline test, unfamiliar pairs of mice were placed into a test chamber (plexiglas mouse cage with sawdust bedding). The duration of social interaction of the two mice (sniffing, anogenital exploration, nosing, grooming, licking, pawing, playing copulatory attempts) was observed and recorded for a period of five minutes and was registered cumulatively as total seconds of contact. Twenty-four hours later, the animals were given a retest without any drug treatment. At the retest, the now familiar partners from the baseline test were placed into the test chamber for a second confrontation and the duration of social interaction was again measured. Social memory was defined as a significant decrease in duration of social contact from baseline to retest. Testing took place in normal white light conditions between the hours of 8:30 am and 3:00 pm. The experimenter was blind to the treatment group until the completion of the experiment. The results represent combined data (n=36 per group total) from two studies. Data were analyzed using the Mann-Whitney test.

Take `COc1cccc([C@H](O)C2CCN(CCc3ccc(F)cc3)CC2)c1OC` [M100907, (+)-isomer of α-(2,3-dimethoxyphenyl)-1-[2-(4-fluorophenyl)ethyl]-4-piperidinemethanol]: in the assay with social memory, the “effect on social memory” value is “significantly enhanced”. The “antagonism of scopolamine-stimulated locomotion” value in assay [1] is “significantly antagonized”. In addition, the “Group mean of 60 min activity count totals” value is reported as 3181 in assay [1] (M100907 0.03 + SCOP 0.75, intraperitoneal, n=6); 2378 in assay [1] (M100907 0.1 + SCOP 0.75, intraperitoneal, n=6); 2087 in assay [1] (M100907 0.3 + SCOP 0.75, intraperitoneal, n=6); 2231 in assay [1] (M100907 1 + SCOP 0.75, intraperitoneal, n=6).

Regarding `Cc1nc2n(c(=O)c1CCN1CCC(c3noc4cc(F)ccc34)CC1)CCCC2` [risperidone], the “antagonism of scopolamine-stimulated locomotion” value in assay [1] is recorded as “significantly antagonized”. Besides, the “Group mean of 60 min activity count totals” value in assay [1] (risperidone 0.03 + SCOP 0.75, intraperitoneal, n=8) turned out to be 4615; in assay [1] (risperidone 0.1 + SCOP 0.75, intraperitoneal, n=8), 4037; in assay [1] (risperidone 0.3 + SCOP 0.75, intraperitoneal, n=8), 1795; in assay [1] (risperidone 1 + SCOP 0.75, intraperitoneal, n=8) it was 772. For the same compound, the “activity level relative to baseline (vehicle) level” value in assay [1] (risperidone at the two higher doses + scopolamine) is “reduced activity below baseline level”.
